From ChEMBL document CHEMBL1201862, “PubChem BioAssay data set” (2004)
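Test compounds were applied to cells in 96-well plates for 48 hours at 5 doses. At the GI50, growth is halved.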 Activity calls are given as the source filed them. Rule as the data show it: active = GI50 up to about 1.1 µM and inactive = higher.

What was measured:
Experiment in all cases: NCI tumour cell line growth inhibition, 48 h
SN12C = system: SN12C
SNB-19 = system: SNB-19
NCI/ADR-RES = system: NCI/ADR-RES
A498 = system: A498
OVCAR-4 = system: OVCAR-4
PC-3 = system: PC-3
ACHN = system: ACHN
UACC-257 = system: UACC-257
MDA-MB-435 = system: MDA-MB-435
MDA-MB-231 = system: MDA-MB-231
HCT-116 = system: HCT-116
TK-10 = system: TK-10
UACC-62 = system: UACC-62
Malme-3M = system: Malme-3M
SK-MEL-2 = system: SK-MEL-2

Compound	GI50 (SN12C)	GI50 (SNB-19)	GI50 (NCI/ADR-RES)	GI50 (A498)	GI50 (OVCAR-4)	GI50 (PC-3)	GI50 (ACHN)	GI50 (UACC-257)	GI50 (MDA-MB-435)	GI50 (MDA-MB-231)	GI50 (HCT-116)	GI50 (TK-10)	GI50 (UACC-62)	GI50 (Malme-3M)	GI50 (SK-MEL-2)
Cc1ccc(S(=O)(=O)NCCSCCNS(=O)(=O)c2ccc(C)cc2)cc1	> 100 µM (inactive)	> 100 µM (inactive)	> 100 µM (inactive)	> 100 µM (inactive)	> 100 µM (inactive)	> 100 µM (inactive)	> 100 µM (inactive)	> 100 µM (inactive)	> 100 µM (inactive)	> 100 µM (inactive)	> 100 µM (inactive)	> 100 µM (inactive)	–	–	–
CC(C)OP(=O)(OC(C)C)c1ccc2c(c1)OCCOCCOCCOCCO2	> 100 µM (inactive)	> 100 µM (inactive)	–	> 100 µM (inactive)	–	> 100 µM (inactive)	> 100 µM (inactive)	> 100 µM (inactive)	> 100 µM (inactive)	> 100 µM (inactive)	> 100 µM (inactive)	> 100 µM (inactive)	> 100 µM (inactive)	> 100 µM (inactive)	–
COc1ccc(/C=N/n2cnc3[nH]c(C)c(Cc4ccccc4)c3c2=N)cc1	92 µM (inactive)	> 100 µM (inactive)	> 100 µM (inactive)	67.8 µM (inactive)	> 100 µM (inactive)	> 100 µM (inactive)	97.1 µM (inactive)	> 100 µM (inactive)	> 100 µM (inactive)	68.4 µM (inactive)	> 100 µM (inactive)	> 100 µM (inactive)	> 100 µM (inactive)	> 100 µM (inactive)	> 100 µM (inactive)
O=P(O)(O)CN1CCN(CP(=O)(O)O)CCN(CP(=O)(O)O)CCN(CP(=O)(O)O)CC1	> 100 µM (inactive)	> 100 µM (inactive)	> 100 µM (inactive)	62.5 µM (inactive)	> 100 µM (inactive)	87.3 µM (inactive)	> 100 µM (inactive)	> 100 µM (inactive)	> 100 µM (inactive)	> 100 µM (inactive)	36.4 µM (inactive)	55.5 µM (inactive)	46 µM (inactive)	–	32.8 µM (inactive)
CC(C)(C)c1cc(C(=O)/C=C/c2ccc(C(=O)O)cc2)cc(C(C)(C)C)c1	2.11 µM (inactive)	2.36 µM (inactive)	2.42 µM (inactive)	1.92 µM (inactive)	6.14 µM (inactive)	4.48 µM (inactive)	4 µM (inactive)	10.1 µM (inactive)	2.16 µM (inactive)	3.87 µM (inactive)	2.73 µM (inactive)	3.37 µM (inactive)	1.77 µM (inactive)	1.42 µM (inactive)	2.94 µM (inactive)
CC1(C)C[C@H]2C=C(C=O)[C@]34C[C@]3(C(=O)OC4O)[C@H]2C1 (stereo partly specified)	3.86 µM (inactive)	11.4 µM (inactive)	–	3.06 µM (inactive)	2.55 µM (inactive)	2.84 µM (inactive)	1.53 µM (inactive)	2.11 µM (inactive)	2.35 µM (inactive)	1.48 µM (inactive)	1.14 µM (inactive)	1.77 µM (inactive)	1.97 µM (inactive)	1.73 µM (inactive)	1.72 µM (inactive)
O=C(O)CN1C(=O)OC(c2ccccc2)C1=O (stereo unspecified)	> 100 µM (inactive)	> 100 µM (inactive)	> 100 µM (inactive)	> 100 µM (inactive)	> 100 µM (inactive)	> 100 µM (inactive)	> 100 µM (inactive)	> 100 µM (inactive)	> 100 µM (inactive)	> 100 µM (inactive)	> 100 µM (inactive)	> 100 µM (inactive)	> 100 µM (inactive)	> 100 µM (inactive)	> 100 µM (inactive)
COc1cccc(Nc2nc(-c3cccs3)nc3ccc(Br)cc23)c1	> 100 µM (inactive)	25.5 µM (inactive)	40.5 µM (inactive)	> 100 µM (inactive)	–	27.4 µM (inactive)	> 100 µM (inactive)	> 100 µM (inactive)	76 µM (inactive)	37.8 µM (inactive)	50.5 µM (inactive)	36.7 µM (inactive)	66.2 µM (inactive)	72.9 µM (inactive)	> 100 µM (inactive)
COc1cc(OC)c2nc(C)c3c(c2c1)OCC3	89.3 µM (inactive)	47.3 µM (inactive)	> 100 µM (inactive)	> 100 µM (inactive)	> 100 µM (inactive)	> 100 µM (inactive)	> 100 µM (inactive)	> 100 µM (inactive)	> 100 µM (inactive)	12.6 µM (inactive)	80.7 µM (inactive)	> 100 µM (inactive)	44.8 µM (inactive)	> 100 µM (inactive)	> 100 µM (inactive)
COc1ccc2cc(/C=N\NC(=O)Nc3cccc4ccccc34)ccc2c1	36.6 µM (inactive)	22 µM (inactive)	> 100 µM (inactive)	17.5 µM (inactive)	14.5 µM (inactive)	33.7 µM (inactive)	23.9 µM (inactive)	32.4 µM (inactive)	50.6 µM (inactive)	27 µM (inactive)	16.6 µM (inactive)	22 µM (inactive)	–	97.7 µM (inactive)	25.7 µM (inactive)
Nc1c2c(=O)[nH]c(=O)c2c(N)c2c(=O)c3ccccc3c(=O)c12	1.52 µM (inactive)	3.29 µM (inactive)	2.11 µM (inactive)	1.12 µM (inactive)	1.21 µM (inactive)	2.49 µM (inactive)	2.24 µM (inactive)	1.69 µM (inactive)	0.478 µM (active)	3.02 µM (inactive)	4.6 µM (inactive)	9.68 µM (inactive)	1.61 µM (inactive)	0.222 µM (active)	2.07 µM (inactive)
COc1cc(C2c3cc(OC)c(OC)c(O)c3C(=O)C3CCC(=O)N32)cc(OC)c1OC (stereo unspecified)	> 100 µM (inactive)	> 100 µM (inactive)	22 µM (inactive)	> 100 µM (inactive)	> 100 µM (inactive)	> 100 µM (inactive)	> 100 µM (inactive)	> 100 µM (inactive)	16.2 µM (inactive)	44.1 µM (inactive)	93.1 µM (inactive)	> 100 µM (inactive)	64 µM (inactive)	–	> 100 µM (inactive)
O=CC1C(Cl)=Nc2nc3ccccc3n2C1c1ccc([N+](=O)[O-])cc1 (stereo unspecified)	15.4 µM (inactive)	16 µM (inactive)	40.5 µM (inactive)	24.7 µM (inactive)	13.6 µM (inactive)	4.89 µM (inactive)	2.43 µM (inactive)	13.6 µM (inactive)	4.81 µM (inactive)	14.9 µM (inactive)	3.73 µM (inactive)	4.54 µM (inactive)	16.3 µM (inactive)	8.13 µM (inactive)	6.03 µM (inactive)
CC(=O)N1OC(C)CC1Nc1ccc(Br)cc1 (stereo unspecified)	20.8 µM (inactive)	> 100 µM (inactive)	> 100 µM (inactive)	> 100 µM (inactive)	–	1.04 µM (active)	0.415 µM (active)	–	0.577 µM (active)	–	4.03 µM (inactive)	14.7 µM (inactive)	88.3 µM (inactive)	> 100 µM (inactive)	2.62 µM (inactive)
COc1ccc2c(c1)CCC(CN1CCN(CCOC(c3ccccc3)c3ccccc3)CC1)C2O (stereo unspecified)	13.5 µM (inactive)	18.3 µM (inactive)	13.8 µM (inactive)	10.5 µM (inactive)	15.9 µM (inactive)	13.5 µM (inactive)	12.6 µM (inactive)	13 µM (inactive)	16.6 µM (inactive)	15.7 µM (inactive)	12.2 µM (inactive)	14.1 µM (inactive)	13.5 µM (inactive)	17.5 µM (inactive)	17.5 µM (inactive)
C=CCOCC1C2CCC3(OCCO3)C21 (stereo unspecified)	> 100 µM (inactive)	> 100 µM (inactive)	> 100 µM (inactive)	–	> 100 µM (inactive)	> 100 µM (inactive)	> 100 µM (inactive)	> 100 µM (inactive)	> 100 µM (inactive)	> 100 µM (inactive)	> 100 µM (inactive)	> 100 µM (inactive)	30.1 µM (inactive)	> 100 µM (inactive)	> 100 µM (inactive)
CCOC(=O)/C(=N/Nc1ccccc1)N1C(=S)N(C)N=C(C)C=C1S	> 100 µM (inactive)	> 100 µM (inactive)	> 100 µM (inactive)	–	> 100 µM (inactive)	–	> 100 µM (inactive)	> 100 µM (inactive)	> 100 µM (inactive)	43.9 µM (inactive)	> 100 µM (inactive)	86.1 µM (inactive)	83.4 µM (inactive)	–	> 100 µM (inactive)
COc1cccc(C2SC(=N)Nc3c2c(C)nn3C(=O)Cc2ccccc2)c1 (stereo unspecified)	> 100 µM (inactive)	> 100 µM (inactive)	–	> 100 µM (inactive)	–	> 100 µM (inactive)	> 100 µM (inactive)	> 100 µM (inactive)	> 100 µM (inactive)	> 100 µM (inactive)	> 100 µM (inactive)	> 100 µM (inactive)	> 100 µM (inactive)	> 100 µM (inactive)	–
O=Cc1cccc2ccc3ccccc3c12	20.5 µM (inactive)	7.8 µM (inactive)	8.45 µM (inactive)	22.4 µM (inactive)	–	9.59 µM (inactive)	13.5 µM (inactive)	32 µM (inactive)	18.4 µM (inactive)	17 µM (inactive)	9.18 µM (inactive)	14.3 µM (inactive)	28.1 µM (inactive)	16.4 µM (inactive)	15.1 µM (inactive)
OC1CSCCSCCCSCCSC1	> 100 µM (inactive)	> 100 µM (inactive)	–	> 100 µM (inactive)	> 100 µM (inactive)	> 100 µM (inactive)	> 100 µM (inactive)	> 100 µM (inactive)	> 100 µM (inactive)	> 100 µM (inactive)	> 100 µM (inactive)	> 100 µM (inactive)	> 100 µM (inactive)	–	> 100 µM (inactive)
